Source: patent publication US20180194762A1 (Pharmacyclics LLC, priority 2017, published 2018)

Legend:
Assay type in all cases: biochemical
Btk = molecular target: T1, Btk (Homo sapiens, UniProt Q06187); assay: Btk in vitro inhibitory activity (one of Method A TR-FRET, Method B electrophoretic mobility shift, Method C radiometric filter binding); settings: wild-type Btk; read-out: Btk-WT IC50
T1 construct: purified from insect cells as a full-length construct containing a N-terminal 6X-His tag; His6 (N); made in house; host or cells: insect cells (Method C)
T1 sequence (Q06187 whole entry): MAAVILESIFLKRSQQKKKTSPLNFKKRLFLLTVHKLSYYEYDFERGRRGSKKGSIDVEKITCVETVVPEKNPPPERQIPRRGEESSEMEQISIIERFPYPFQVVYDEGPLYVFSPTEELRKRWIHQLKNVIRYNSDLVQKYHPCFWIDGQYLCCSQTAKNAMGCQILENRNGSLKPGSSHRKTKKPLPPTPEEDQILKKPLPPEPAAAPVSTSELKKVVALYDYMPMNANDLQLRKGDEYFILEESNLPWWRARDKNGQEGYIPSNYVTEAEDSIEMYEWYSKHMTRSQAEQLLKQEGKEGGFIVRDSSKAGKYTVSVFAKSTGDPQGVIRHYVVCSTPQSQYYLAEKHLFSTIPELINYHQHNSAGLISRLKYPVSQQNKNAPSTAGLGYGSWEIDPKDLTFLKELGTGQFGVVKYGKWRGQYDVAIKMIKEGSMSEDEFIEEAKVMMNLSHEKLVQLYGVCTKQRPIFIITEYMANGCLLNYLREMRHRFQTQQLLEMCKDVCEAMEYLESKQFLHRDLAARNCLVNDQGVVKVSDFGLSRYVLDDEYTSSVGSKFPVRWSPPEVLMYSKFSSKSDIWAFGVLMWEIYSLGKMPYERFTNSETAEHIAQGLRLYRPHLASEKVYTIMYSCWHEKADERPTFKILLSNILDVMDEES
Procedure, shortened: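 Three alternative formats were used. A radiometric filter-binding read used 8 nM full-length His-BTK with 0.2 mg/mL poly(Glu-Tyr) 4:1 (C); microfluidic separation of 1 μM FAM-peptide by 1 nM BTK gave IC50 from 12-point curves (B); TR-FRET at Km ATP, 0.5 nM Btk, gave Ki(app)-derived IC50 (A).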

TEC = molecular target: T2, TEC (Homo sapiens, UniProt P42680); assay: Inhibition of a panel of kinases (in vitro HotSpot kinase assay, 33P-ATP, 1 μM ATP); settings: for IC50: HotSpot kinase assay, 1 μM ATP; for TEC/Btk: ratio of TEC IC50 to Btk IC50 (selectivity)
T2 sequence (P42680 1-631): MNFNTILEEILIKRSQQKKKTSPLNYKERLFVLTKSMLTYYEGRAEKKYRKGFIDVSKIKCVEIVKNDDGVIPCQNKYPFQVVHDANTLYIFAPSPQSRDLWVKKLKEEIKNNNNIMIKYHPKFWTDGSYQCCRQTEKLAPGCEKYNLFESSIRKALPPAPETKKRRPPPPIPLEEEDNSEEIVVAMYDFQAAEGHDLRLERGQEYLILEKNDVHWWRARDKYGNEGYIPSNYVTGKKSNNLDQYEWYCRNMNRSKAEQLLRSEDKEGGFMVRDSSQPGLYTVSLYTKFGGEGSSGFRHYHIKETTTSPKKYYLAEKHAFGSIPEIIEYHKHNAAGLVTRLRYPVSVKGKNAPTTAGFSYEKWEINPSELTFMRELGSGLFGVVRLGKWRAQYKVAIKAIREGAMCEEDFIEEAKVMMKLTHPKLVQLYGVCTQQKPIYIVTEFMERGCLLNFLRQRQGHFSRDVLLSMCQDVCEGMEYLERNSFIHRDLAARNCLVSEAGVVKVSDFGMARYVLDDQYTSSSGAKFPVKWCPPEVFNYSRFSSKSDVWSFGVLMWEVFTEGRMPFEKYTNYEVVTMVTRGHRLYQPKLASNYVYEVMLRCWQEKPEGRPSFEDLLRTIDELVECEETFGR
Procedure, shortened: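 At 1 μM ATP spiked with 33P-ATP, substrate phosphorylation by the purified enzymes gives the extent of inhibition.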

panel of kinases = molecular target: T3, panel of kinases (Homo sapiens, UniProt P51813); assay: Inhibition of a panel of kinases (in vitro HotSpot kinase assay, 33P-ATP, 1 μM ATP), other kinases; settings: BMX wild-type, read-out: BMX-WT IC50
T3 sequence (P51813 1-675): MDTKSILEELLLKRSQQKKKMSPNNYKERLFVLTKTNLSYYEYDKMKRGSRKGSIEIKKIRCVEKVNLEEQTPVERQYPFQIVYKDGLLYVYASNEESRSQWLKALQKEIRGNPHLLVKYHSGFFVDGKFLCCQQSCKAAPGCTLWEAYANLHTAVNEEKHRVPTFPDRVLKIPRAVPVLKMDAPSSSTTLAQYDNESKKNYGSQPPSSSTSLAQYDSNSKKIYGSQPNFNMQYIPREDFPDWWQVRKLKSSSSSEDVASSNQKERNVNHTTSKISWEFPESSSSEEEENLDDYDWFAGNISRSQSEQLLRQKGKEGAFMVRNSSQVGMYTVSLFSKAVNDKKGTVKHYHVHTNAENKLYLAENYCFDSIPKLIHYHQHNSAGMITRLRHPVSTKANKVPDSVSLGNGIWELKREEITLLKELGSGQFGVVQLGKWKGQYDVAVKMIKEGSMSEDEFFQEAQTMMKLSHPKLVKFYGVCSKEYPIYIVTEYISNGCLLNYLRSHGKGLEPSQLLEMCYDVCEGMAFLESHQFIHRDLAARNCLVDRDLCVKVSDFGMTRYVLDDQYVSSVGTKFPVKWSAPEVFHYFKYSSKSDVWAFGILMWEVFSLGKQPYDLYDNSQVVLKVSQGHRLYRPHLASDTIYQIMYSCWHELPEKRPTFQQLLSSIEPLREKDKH
Experimental: Example 63: Inhibition of a Panel of Kinases The degree of inhibition of a panel of kinases is determined using the in vitro HotSpot kinase assay (purified enzymes, ^33P-ATP, an appropriate substrate and 1 μM ATP).

| IC50 (Btk) [nM] | IC50 (TEC) [nM] | TEC/Btk (TEC) | IC50 (panel of kinases) [nM] | SMILES |
| --- | --- | --- | --- | --- |
| 57.7 | > 10000 | >100 | > 10000 | CC(C)(C)c1nc(C(=O)NC2(c3ccc(-c4ccnc5[nH]nc(N[C@@H]6CCNC6)c45)cc3)CC2)no1 [Compound 1, 5-tert-butyl-N-{1-[4-(3-{[(3R)-pyrrolidin-3-yl]amino}-1H-pyrazolo[3,4-b]pyridin-4-yl)phenyl]cyclopropyl}-1,2,4-oxadiazole-3-carboxamide] |
| 11.6 | 950 | 82 | 1980 | CC(C)(C)c1nc(C(=O)NCc2ccc(-c3ccnc4[nH]nc(N[C@@H]5CCNC5)c34)cc2F)no1 [Compound 2, (R)-5-(tert-butyl)-N-(2-fluoro-4-(3-(pyrrolidin-3-ylamino)-1H-pyrazolo[3,4-b]pyridin-4-yl)benzyl)-1,2,4-oxadiazole-3-carboxamide] |
| 0.205 | 20 | 98 | 39 | C=CC(=O)N1CC[C@@H](Nc2n[nH]c3nccc(-c4ccc(CNC(=O)c5noc(C(C)(C)C)n5)c(F)c4)c23)C1 [Compound 3, (R)—N-(4-(3-((1-acryloylpyrrolidin-3-yl)amino)-1H-pyrazolo[3,4-b]pyridin-4-yl)-2-fluorobenzyl)-5-(tert-butyl)-1,2,4-oxadiazole-3-carboxamide] |
| 0.559 | 103 | 184 | 132 | C=CC(=O)N1CC[C@@H](Nc2n[nH]c3nccc(-c4ccc(C5(NC(=O)c6noc(C(C)(C)C)n6)CC5)cc4)c23)C1 [Compound 4, (R)—N-(1-(4-(3-((1-acryloylpyrrolidin-3-yl)amino)-1H-pyrazolo[3,4-b]pyridin-4-yl)phenyl)cyclopropyl)-5-(tert-butyl)-1,2,4-oxadiazole-3-carboxamide] |
| 719 |  |  | 7000 | O=C(NCc1ccc(-c2ccnc3[nH]nc(NC4CCNC4)c23)cc1F)c1ccc2c(c1)OCCCO2 (stereo not shown) [Example 350, N-[(2-fluoro-4-{3-[(pyrrolidin-3-yl)amino]-1H-pyrazolo[3,4-b]pyridin-4-yl}phenyl)methyl]-3,4-dihydro-2H-1,5-benzodioxepine-7-carboxamide] |
| 108 |  |  | 1530 | O=C(NCc1ccc(-c2ccnc3[nH]nc(N[C@@H]4CCNC4)c23)cc1F)c1ccc2scnc2c1 [Example 352, (R)-N-[(2-fluoro-4-{3-[(pyrrolidin-3-yl)amino]-1H-pyrazolo[3,4-b]pyridin-4-yl}phenyl)methyl]-1,3-benzothiazole-5-carboxamide] |
| 48.3 |  |  | 5500 | CC(=O)N[C@@H]1CCN(c2n[nH]c3nccc(-c4ccc([C@@H](C)NC(=O)c5cc(C(C)(C)O)on5)cc4)c23)C1 [Example 363, N-[(1R)-1-(4-{3-[(3R)-3-acetamidopyrrolidin-1-yl]-1H-pyrazolo[3,4-b]pyridin-4-yl}phenyl)ethyl]-5-(2-hydroxypropan-2-yl)-1,2-oxazole-3-carboxamide] |
| 10.5 |  |  | 6920 | C[C@@H](NC(=O)c1nc(C(C)(C)C)no1)c1ccc(-c2ccnc3[nH]nc(NC4CCN(S(C)(=O)=O)C4)c23)cc1 (stereo partly drawn) [Example 386, 3-tert-butyl-N-{(1R)-1-[4-(3-{[1-(methanesulfonyl)pyrrolidin-3-yl]amino}-1H-pyrazolo[3,4-b]pyridin-4-yl)phenyl]ethyl}-1,2,4-oxadiazole-5-carboxamide] |
| 27.3 |  |  | 7210 | C[C@@H](NC(=O)c1nc(C(C)(C)C)no1)c1ccc(-c2ccnc3[nH]nc(NC4CCN(S(C)(=O)=O)CC4)c23)cc1 [Example 387, 3-tert-butyl-N-{(1R)-1-[4-(3-{[1-(methanesulfonyl)piperidin-4-yl]amino}-1H-pyrazolo[3,4-b]pyridin-4-yl)phenyl]ethyl}-1,2,4-oxadiazole-5-carboxamide] |
| 625 |  |  | 5730 | C[C@@H](NC(=O)c1cc(C(C)(C)O)on1)c1ccc(-c2ccnc3[nH]nc(NC4CCOC4)c23)cc1 (stereo partly drawn) [Example 398, 5-(2-hydroxypropan-2-yl)-N-[(1R)-1-(4-{3-[(oxolan-3-yl)amino]-1H-pyrazolo[3,4-b]pyridin-4-yl}phenyl)ethyl]-1,2-oxazole-3-carboxamide] |
